Measurements from patent publication US20240110915A1, “METHODS, PRODUCTS AND SYSTEMS FOR PROGNOSIS OF SUBJECTS SUFFERING FROM MULTIPLE MYELOMA” (University of South Australia, priority 2020, published 2024).

Assays:
DSG2 = DSG2 protein knockdown in KMS-11 cells by Western blot; format: cell-based, human; conditions: stable shRNA expression
Description: Lentiviral vectors (pGIPZ) expressing DSG2-shRNA and non-silencing control-shRNA were obtained from Open Biosystem (Dharmacon). The following shRNA sequences were cloned into the pGIPZ expression plasmid: 5′-TGGATGTCAATGACAATAT-3′ (DSG2-shRNA60) (SEQ ID NO. 2); 5′-CCAGTGTTCTACCTAAATA-3′ (DSG2-shRNA62) (SEQ ID NO. 3); and
5′-[…]-3′ (non-silencing shRNA) (SEQ ID NO. 4). Replication incompetent lentiviral particles were generated by transiently co-transfecting HEK293T cells with ViraPower Lentiviral Support Kit (Invitrogen) and pGIPZ-shRNA vectors using Lipofectamine 2000 (Invitrogen). […]
KMS-11 cells cultured on 100 mm Petri dishes were washed twice with ice-cold PBS and solubilized in RIPA lysis buffer (150 mM NaCl, 50 mM Tris-HCl, pH 7.5, 1% Triton X-100, 1% deoxycholate, 0.1% SDS, and 2 mM EDTA) containing both protease (cOmplete™, Roche) and phosphatase inhibitors (PhosStop™, Roche) for 10 min on ice. The lysates were clarified by centrifugation at 13,000×g for 10 min at 4° C., and protein concentrations determined using the bicinchoninic acid protein assay kit (Pierce). […] After washing, immunoreactivity was detected by using the Odyssey infrared imager (Li-COR). […] Band intensities were quantitated by densitometry using the software associated with the Odyssey infrared imager (Li-COR).

[1] = test system: KMS-11 cells with stable knockdown of DSG2 (DSG2 shRNA); test: Cell viability by AnnexinV staining, cells with stable DSG2 knockdown; format: cell-based, human; conditions: over 12 hours at 2 nM and 4 nM; compared with cells without knockdown
Description: (§1) Lentiviral vectors (pGIPZ) expressing DSG2-shRNA and non-silencing control-shRNA were obtained from Open Biosystem (Dharmacon) and cloned into the pGIPZ expression plasmid: 5′-TGGATGTCAATGACAATAT-3′ (SEQ ID NO: 2; DSG2-shRNA60); 5′-CCAGTGTTCTACCTAAATA-3′ (SEQ ID NO:3; DSG2-shRNA62); and 5′-[…]-3′ (SEQ ID NO: 4; non-silencing shRNA). Replication incompetent lentiviral particles were generated by transiently co-transfecting HEK293T cells with ViraPower Lentiviral Support Kit (Invitrogen) and pGIPZ-shRNA vectors using Lipofectamine 2000 (Invitrogen). Lentiviral supernatant was harvested 72 hours post-transfection and used to transduce 1×10^5 KMS-11 cells that were seeded in a 6-well plate, in the presence of 4 μg/mL polybrene. Puromycin (1 μg/mL) was continually added to maintain culture of cells with the transduced vectors and DSG2 expression was routinely checked using flow cytometry and western blot. Cell without and with DSG2 KD were cultured with increasing concentrations of Bortezomib (2-4 nM, (Janssen Cilag, New Brunswick NJ)) and after 12 hours the cell viability was determined using AnnexinV staining using flow cytometric analysis.

[2] = test system: KMS-11 human multiple myeloma cells; test: Cell viability by AnnexinV staining, flow cytometric analysis; format: cell-based; conditions: overnight exposure, 4 nM
Description: as §1

[3] = molecular target: human desmoglein 2 (DSG2) (human) (UniProt Q14126); test: cell-based or functional assay

5′-CCAGTGTTCTACCTAAATA-3′ [DSG2-shRNA62]
knockdown of DSG2 protein (DSG2): Efficient knockdown

5′-TGGATGTCAATGACAATAT-3′ [DSG2-shRNA60]
knockdown of DSG2 protein (DSG2): Efficient knockdown

CC(C)C[C@H](NC(=O)[C@H](Cc1ccccc1)NC(=O)c1cnccn1)B(O)O [Bortezomib]
sensitivity to Bortezomib (cell viability) of KMS-11 cells with stable DSG2 knockdown [1]: even further increased sensitivity
viability of KMS-11 human multiple myeloma cells [2]: reduced

human desmoglein 2 (DSG2) (from UniProt Q14126 50-1118)
reduction in adhesion of KMS-11 cells with DSG2 knockdown (shRNA construct A) to a BMEC-DSG2 monolayer, compared to the NT control cell line [3]: 28.1%
reduction in adhesion of KMS-11 cells with DSG2 knockdown (shRNA construct C) to a BMEC-DSG2 monolayer, compared to the NT control cell line [3]: 35.6%
